Data published in patent US10058587B2, “Peptide composition for cancer treatment by inhibiting TRPV6 calcium channel activity” (priority 2008, dated 2018).
“Also recorded” adds a separate entry of the source. Where no end group is shown, it is not given here.

Legend:
[1] = test system: MDA-MB-468 (MB 468) breast cancer cell line; assay: Induction of apoptosis (APO-ONE caspase 3/7) and cell viability (CellTiter Blue); type: cell-based, human; design: key: cell viability decreased (+); or not (−)
Protocol: (§1) MCF-7, MDA-MB-231, MDA-MB-415, MDA-MB-468 were grown in DMEM modified with 10% (v/v) fetal bovine serum, 2 mM L-glutamine and 50 ug/mL each of penicillin and streptomycin.
(§2) The levels of apoptotic induction and cell viability were determined by multiplexing the measurements for single samples. CellTiter Blue and APO-ONE assay systems from Promega allows the determination of cell viability correlated to cell number, and induction of apoptosis. This protocol uses a fluorgenic peptide that contains a peptide recognition-sequence for caspase 3 and caspase 7, […] proteolytic enzymes of the apoptosis cascade. The CellTiter Blue reagent was added to wells in a 96-well plate containing cells under test, immediately after addition of peptide solution or vehicle. About 5000 cells were plated into the wells the day before. At the chosen time (Day 1, Day 2 etc.) the fluorescence was measured at 590 nm (emission) after excitation at 560 nm. The caspase 3/7 activity was measured (485 nm Ex/527 nm Em) in the same wells after adding 120 uL of the Apo-ONE reagent, freeze fracturing at −80° C. for 1 hr, and incubating for 1 hr at room temperature.
(§3) For this work, the concentrations of SorC13 and SorC27 used were 0 uM, 1 uM, 10 uM and 100 uM. The experiments extended over a 5 to 7 day period. All measurements were done in quadruplicate with both a blank (no cells) and control (vehicle, no peptide) used to correct the test measurements. The time-response data, and the dose-response data were plotted as means±standard error of the mean. Any statistical comparisons were done with the Student's t-test or by ANOVA analysis over the dose course. The level of statistical significance was considered to be the 95% confidence interval (i.e., p≤0.05).

[2] = test system: T 47D breast cancer cell line; assay: as above; type: cell-based, human; design: key to Decline in cell viability: cell viability decreased (+); or not (−)
Protocol: T 47D was cultured in RPMI medium (Sigma-Aldrich) modified with 15% fetal bovine serum, 2 mM L-glutamine, 1 mM sodium pyruvate, 0.1 mg/mL bovine insulin and penicillin plus streptomycin mixture (50 ug/mL each).
as §2, §3
To benchmark the effect of both C-type peptides to the gold-standard treatment presently used against breast cancer (Paclitaxel), SorC13, SorC27 and Paclitaxel (10 uM) were compared. Both the APO-ONE assay (Promega) and the CellTiter Blue were used on the panel of breast cancer cell lines. The data were compared directly in terms of mean response and tested for significant difference.

[3] = test system: human SKOV3 ovarian cancer tumors; assay: SKOV3 ovarian cancer xenograft, SorC27 versus saline and CAT (Example 14); type: in vivo, NOD/SCID mice
Protocol: Tumor volumes (V) are calculated by caliper measurement using standard measurements of the width (W), length (L) and thickness (T) of tumors. Animals are randomized into treatment groups so that the median tumor volumes of each group were similar at the start of dosing. % T/C values, as a measure of efficacy, are determined where C refers to volume of control or untreated tumor, and T refers to volume of treated tumor.
SKOV3 cells were obtained from ATCC, cultured and expanded to suitable numbers to establish xenografts in mice and then formulated into gel pellets and grafted under the renal capsule of surrogate NOD/SCID mice in order to establish the tumors. Tumors are then permitted to develop in vivo until the majority reach 100-200 mm^3 in tumor volume, which typically requires 1-2 weeks following implantation. Once xenografts are established, they are harvested and cut into multiple uniform pieces. Sixteen to eighteen pieces were implanted subcutaneously into each NOD/SCID mouse for experimentation. After 2 days, the animals are treated with either the test peptides or CAT or combinations.
Mice implanted with SKOV3 cells as detailed above received saline (control), SorC27 (400 mg/kg), by i.p. injection every day for 12 days or CAT injections one every week. The tumor volume and body weights were measured every day. As well, general health of the animals was monitored every day. The results shown in FIG. 12 are presented in terms of tumor load normalized to body weight. […] By Day 12 there was no statistically significant difference between CAT and SorC27 at this dose.

[4] = test system: MDA-MB-468 (MB 468) breast cancer cell line; assay: Induction of apoptosis (APO-ONE caspase 3/7) and cell viability (CellTiter Blue); type: cell-based, human; design: key: decreased (+); or not (−); conditions: SorC27
Protocol: as §1, §2
(§4) For this work, the concentrations of SorC13 and SorC27 used were 0 uM, 1 uM, 10 uM and 100 uM. The experiments extended over a 5 to 7 day period. […]

[5] = test system: MDA-MB-231 (MB 231) breast cancer cell line; assay: as above; type: cell-based, human; design: key to Decline in cell viability: decreased (+); or not (−)
Protocol: as §1, §2, §3

[6] = test system: MDA-MB-415 (MB 415) breast cancer cell line; assay: as above; type: cell-based, human; design: key to Decline in cell viability: decreased (+); or not (−)
Protocol: as §1, §2, §3

[7] = Storage stability of solid and aqueous solution; type: physicochemical
Protocol: Additionally, the peptides have greater shelf-life stability and solution stability due to the presence of fewer sensitive disulfide bonds (soricidin has 3 disulfide bonds). The peptides of the invention optionally have no disulfide bonds. An absence of disulfide bonds provides a very long shelflife during storage under minimal refrigeration or at room temperature as a solid. Additionally when the peptides of the invention with no disulfide bonds are dissolved in water, cleavage of disulfide bonds cannot occur. […] The formation of inter-peptide S—S bonds also results in precipitation of soricidin. The peptides of the invention, such as SorC13 and SorC27, are typically stable in aqueous solution at 8° C. for at least 3 weeks with no change in purity as measured by HPLC.
“Very stable” in the above table means that there was no observable degradation of the solid peptides over 6 months. As a solution in sterile water, the peptides are typically stable for at least 3 weeks at 8° C. and at −20° C., are expected to be stable more than 1 year.

[8] = test system: MCF 7 breast cancer cell line; assay: Induction of apoptosis (APO-ONE caspase 3/7) and cell viability (CellTiter Blue); type: cell-based, human; design: key: decreased (+); or not (−); conditions: SorC27
Protocol: as §1, §2, §4

[9] = 400 mg/kg i.p. every day for 12 days

Sequence: KEFLHPSKVDLPR [SorC13, KEFLHPSKVDLPR]
- Decline in cell viability ([1]; SorC13 1 uM): +
- Decline in cell viability ([1]; SorC13 10 uM): +
- Decline in cell viability ([1]; SorC13 100 uM): +
- Apoptosis Index (1 = no effect) ([2]; SorC13 1 uM): 2.0
- Decline in cell viability ([2]; SorC13 1 uM): +
- Apoptosis Index (1 = no effect) ([2]; SorC13 10 uM): 2.8
- Decline in cell viability ([2]; SorC13 10 uM): +
- induction of apoptosis compared with Paclitaxel (10 uM) ([2]; SorC13 10 uM): more effective at inducing a faster and more intense apoptotic response
- Apoptosis Index (1 = no effect) ([2]; SorC13 100 uM): 4.3
- Decline in cell viability ([2]; SorC13 100 uM): +

Sequence: EGKLSSNDTEGGLCKEFLHPSKVDLPR [SorC27]
- % T/C ratio (mean tumour volume of treated/mean tumour volume of control) [3, 9]: 39.9%
- decrease in tumour growth [3, 9]: 60.1%
- tumor volume normalized to body weight versus control saline ([3]; over 12 days, SorC27 400 mg/kg i.p. daily, CAT once every week, 400 mg/kg): greatly reduced tumor volume; also recorded: reduced the tumor volume significantly
- Decline in cell viability [4]: +
- Apoptosis Index (1 = no effect) ([5]; Day 3, SorC27 10 μM): 1.5
- Apoptosis Index (1 = no effect) ([5]; Day 3, SorC27 100 μM): 1.7
- Decline in cell viability ([5]; SorC27): +
- Decline in cell viability ([6]; SorC27): +
- Apoptosis Index (1 = no effect) ([6]; SorC27 10 μM): 1.3
- Apoptosis Index (1 = no effect) ([6]; SorC27 100 μM): 1.5
- Stability in aqueous solution @ −20° C. [7]: Very stable
- Stability solid @ Room Temp. [7]: Very stable
- Stability solid @ −20° C. [7]: Very stable
- Decline in cell viability [8]: +
